In brackets after ≈: the same amount, converted by molar mass.
What was measured:
[1] = test system: SF-295; assay: cells; details: Homo sapiens, SF-295, 48 h; for CC50: read-out: LC50
[2] = test system: Trichophyton mentagrophytes (CCC 202-2000); assay: Antifungal broth microdilution (CLSI); assay type: cell-based; details: Tm: Trichophyton mentagrophytes
Method: Several of the obtained triazine derivatives were evaluated against sensitive fungal species comprising of two yeasts (Candida albicans (ATCC 10231), Cryptococcus neoformans (ATCC 32264)), three dermatophytes (Microsporum gypseum (CCC 115), Trichophyton rubrum (CCC 134-2000), Trichophyton mentagrophytes (CCC 202-2000)), and three Aspergillus fungi ((A. [NT] 26934), A. niger (ATCC 9029), and A. flavus (ATCC 9170)). […] Broth microdilution techniques were performed in 96-well microplates according to the Reference Method for Broth Dilution Antifungal Susceptibility Testing of Yeasts, document M27-A3 [86] and of Filamentous Fungi […]-A8 [87]. […] An inoculum suspension (100 μL) was added to each well (final well volume = 200 μL). One growth control well (containing medium, inoculum, and the same amount of DMSO as used for each compound) and one sterility control well (sample, medium, and sterile water instead of inoculum) were included for each fungus tested. Microtiter plates were incubated in a dark, humid chamber at 30 °C for the time necessary for each fungus. Amphotericin B, Terbinafine, Fluconazole and Itraconazole were used as a positive control. The tests were performed in triplicate.

[3] = test system: HOP-62; assay: cells; details: Homo sapiens, HOP-62, 48 h; for CC50: read-out: LC50
[4] = test system: MDA-MB-435; assay: cells; details: Homo sapiens, MDA-MB-435, 48 h; for CC50: read-out: LC50
[5] = test system: RPMI-8226; assay: cells; details: Homo sapiens, RPMI-8226, 48 h; for CC50: read-out: LC50
[6] = test system: SR; assay: cells; details: Homo sapiens, 48 h
[7] = test system: NCI-H23; assay: cells; details: Homo sapiens, NCI-H23, 48 h; for CC50: read-out: LC50
[8] = test system: DU-145; assay: cells; details: Homo sapiens, DU-145, 48 h; for CC50: read-out: LC50
[9] = test system: MALME-3M; assay: cells; details: Homo sapiens, 48 h; for CC50: read-out: LC50
[10] = test system: SK-OV-3; assay: cells; details: Homo sapiens, SK-OV-3, 48 h; for CC50: read-out: LC50
[11] = test system: BT-549; assay: cells; details: Homo sapiens, BT-549, 48 h; for CC50: read-out: LC50
[12] = Hemolytic activity, spectrophotometric; assay type: cell-based, human; details: human, human red blood cells (huRBC), 5% hematocrit, 200 μg/mL, 37 °C
[13] = test system: OVCAR-8; assay: cells; details: Homo sapiens, OVCAR-8, 48 h; for CC50: read-out: LC50
[14] = test system: HCT-15; assay: cells; details: Homo sapiens, HCT-15, 48 h; for CC50: read-out: LC50
[15] = test system: NCI-H226; assay: cells; details: Homo sapiens, NCI-H226, 48 h; for CC50: read-out: LC50
[16] = test system: MCF7; assay: cells; details: Homo sapiens, MCF7, 48 h; for CC50: read-out: LC50
[17] = test system: ACHN; assay: cells; details: Homo sapiens, 48 h; for CC50: read-out: LC50
[18] = test system: 60 cancer cell lines; assay: NCI-60 one-dose screen (10 μM); assay type: cell-based; details: Homo sapiens; one dose of 10 μM, mean over 60 cancer cell lines; read-out: Mean Growth Percent (MGP)
Excerpt: Additionally, the mean of the growth percentages (MGP) of each compound against all the 60 cancer cell lines is also reported, which is used as one of the selection criteria to continue with tests at five concentration doses.

[19] = test system: TK-10; assay: cells; details: Homo sapiens, TK-10, 48 h; for CC50: read-out: LC50
[20] = test system: NCI-H322M; assay: cells; details: Homo sapiens, 48 h; for CC50: read-out: LC50
[21] = test system: RXF 393; assay: cells; details: Homo sapiens, RXF 393, 48 h; for CC50: read-out: LC50
[22] = test system: OVCAR-4; assay: cells; details: Homo sapiens, OVCAR-4, 48 h; for CC50: read-out: LC50
[23] = test system: OVCAR-5; assay: cells; details: Homo sapiens, OVCAR-5, 48 h; for CC50: read-out: LC50
[24] = test system: IGROV1; assay: cells; details: Homo sapiens, IGROV-1, 48 h; for CC50: read-out: LC50
[25] = test system: SW-620; assay: cells; details: Homo sapiens, SW-620, 48 h; for CC50: read-out: LC50
[26] = test system: NCI/ADR-RES; assay: cells; details: Homo sapiens, 48 h
[27] = test system: N. gonorrhoeae ATCC 49226; assay: MIC on GC agar plates; assay type: cell-based, Neisseria gonorrhoeae; details: Neisseria gonorrhoeae, ATCC49226, read-out: MIC
Procedure, shortened: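 N. gonorrhoeae (1 × 10^4 CFU) was spotted onto IsoVitaleX-supplemented (1%) GC agar containing graded compound levels. The lowest inhibitory concentration was recorded as the MIC, with oxidase testing used to verify growth, and each assay was done in duplicate on at least two separate occasions.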

[28] = test system: M. tuberculosis ATCC 27294; assay: Antitubercular broth microdilution MIC; assay type: cell-based; details: Mycobacterium tuberculosis; M. tuberculosis ATCC 27294 (H37Rv); read-out: Minimum inhibitory concentration (MIC)

CN(C)c1nc(NCCNS(=O)(=O)c2ccc(C3=Nc4c(N)nc(N)nc4NC(c4ccc(C(F)(F)F)cc4)C3)cc2)nc(N2CCOCC2)n1 (centres unmarked) [30g]
GI50 [1]: 21.1 µM | CC50 [1]: > 100 µM | MIC [2]: > 250 µg/mL | GI50 [3]: 50.7 µM | CC50 [3]: > 100 µM | GI50 [4]: 34.2 µM | CC50 [4]: > 100 µM | GI50 [5]: 11.2 µM | CC50 [5]: > 100 µM | GI50 [6]: 18.1 µM | CC50 ([6]; read-out: LC50): > 100 µM | GI50 [7]: 37.6 µM | CC50 [7]: > 100 µM | GI50 [8]: 72 µM | CC50 [8]: > 100 µM | GI50 [9]: 19.9 µM | CC50 [9]: > 100 µM | GI50 [10]: 69.7 µM | CC50 [10]: > 100 µM | GI50 [11]: 13.8 µM | CC50 [11]: 73.1 µM | hemolysis at 24 h, 200 µg/mL [12]: 2.4% | GI50 [13]: 59.5 µM | CC50 [13]: > 100 µM | GI50 [14]: 30.9 µM | CC50 [14]: > 100 µM | GI50 [15]: 17.6 µM | CC50 [15]: > 100 µM | GI50 [16]: 18.1 µM | CC50 [16]: > 100 µM | GI50 [17]: 64.4 µM | CC50 [17]: > 100 µM | activity at 10 µM [18]: 38.8% | GI50 [19]: 54.3 µM | CC50 [19]: > 100 µM | GI50 [20]: 45.4 µM | CC50 [20]: > 100 µM | GI50 [21]: 10.3 µM | CC50 [21]: > 100 µM | GI50 [22]: 37 µM | CC50 [22]: > 100 µM | GI50 [23]: 27 µM | CC50 [23]: > 100 µM | GI50 [24]: 27 µM | CC50 [24]: > 100 µM | GI50 [25]: 46.9 µM | CC50 [25]: > 100 µM

CN(C)c1nc(NCCNS(=O)(=O)c2ccc(C3=Nc4c(N)nc(N)nc4NC(c4ccccc4)C3)cc2)nc(Nc2ccc(F)cc2)n1 (centres unmarked) [31a]
GI50 [1]: 9.49 µM | CC50 [1]: > 100 µM | GI50 [3]: 99.7 µM | CC50 [3]: > 100 µM | GI50 [4]: 15 µM | CC50 [4]: > 100 µM | GI50 [26]: > 100 µM | CC50 ([26]; read-out: LC50): > 100 µM | GI50 [5]: 3.32 µM | CC50 [5]: > 100 µM | GI50 [7]: > 100 µM | CC50 [7]: > 100 µM | GI50 [8]: > 100 µM | CC50 [8]: > 100 µM | MIC [27]: 8 µg/mL (≈ 11.7 µM) | GI50 [9]: 7.34 µM | CC50 [9]: > 100 µM | MIC [28]: 1.2 µg/mL (≈ 1.75 µM) | GI50 [10]: > 100 µM | CC50 [10]: > 100 µM | GI50 [11]: 8.82 µM | CC50 [11]: > 100 µM | hemolysis at 24 h, 200 µg/mL [12]: 1% | GI50 [13]: 61.4 µM | CC50 [13]: > 100 µM | GI50 [14]: > 100 µM | CC50 [14]: > 100 µM | GI50 [15]: > 100 µM | CC50 [15]: > 100 µM | GI50 [16]: 3.85 µM | CC50 [16]: 85.5 µM | GI50 [17]: > 100 µM | CC50 [17]: > 100 µM | activity at 10 µM [18]: 40.4% | GI50 [19]: > 100 µM | CC50 [19]: > 100 µM | GI50 [20]: > 100 µM | CC50 [20]: > 100 µM | GI50 [21]: 2.55 µM | CC50 [21]: 8.95 µM | GI50 [22]: 74.6 µM | CC50 [22]: > 100 µM | GI50 [23]: > 100 µM | CC50 [23]: > 100 µM | GI50 [24]: 5.76 µM | CC50 [24]: > 100 µM | GI50 [25]: 40.4 µM | CC50 [25]: > 100 µM

Reference: PMC11012124, “Synthesis of Novel Triazine-Based Chalcones and 8,9-dihydro-7H-pyrimido[4,5-b][1,4]diazepines as Potential Leads in the Search of Anticancer, Antibacterial and Antifungal Agents” (International Journal of Molecular Sciences, 2024)
